Patent publication US5214048A, “Oxetanocins” (priority 1987, dated 1993)
Values after ≈ are worked out from the molar mass of the structure shown.

Columns and labels:
[1] = system: duck hepatitis B virus (DHBV); assay: Efficacy against DHBV-infected duck (dot-blot hybridization of sera); type: in vivo; settings: 6 days
Procedure: (c) Efficacy of OXT-G and 2-Amino-OXT-A against DHBV-infected Duck Newborn ducklings were intraperitoneally infected with 50 μl of duck hepatitis B virus (DHBV) containing sera. Persistent infection in ducks was confirmed by dot-blot hybridization of sera taken from 6 week old ducks. Ducks were intraperitoneally treated with the indicated doses of OXT-G and 2-Animo-OXT-A once a day for 6 days. After treatment of OXTs sera were collected and examined for the presence of DHBV-DNA by dot-blot hybridization as ^32 p-labeled DHBV DNA probe.

[2] = system: B lymphocyte (spleen cells stimulated by LPS); assay: Inhibition of B lymphocyte blastgenesis caused by LPS; type: cell-based, BALB/C mouse; settings: for inhibition at 4 µg/mL / inhibition at 20 µg/mL: Mus musculus, Lymphocyte, read-out: Inhibitory rate (%) on blastgenesis of B lymphocyte caused by LPS; for inhibition at 4 µg/mL: 4.0 μg/ml; for inhibition at 20 µg/mL: 20.0 μg/ml
Procedure: (§1) In the similar method to Waithe et al. (Waithe et al., Handbook of Experimental Immunology, 26, 1, 1978), compounds OXT-X, 2-amino-OXT-A and OXT-G were examined for the effect on lymphocyte blastgenesis.
Inhibition of B lymphocyte blastgenesis caused by LPS (lipopolysaccharide)
According to the method of Test Example 1 (except that 100 μg/ml of Escherichia coli LPS was added in place of Con A), the intake of ^3 [H]-thymidine into blastgenesis B cells was measured. The inhibitory rate of the test sample was similarly determined.

[3] = system: herpes simplex virus type-2 (HSV-2) strain 186; assay: Effect of treatment against HSV-2 infection in mice; type: in vivo, ICR mice; settings: 5 days
Procedure: (a) Effect of treatment with OXTs against HSV-2 infection in mice
The 8-week old male ICR mice were inoculated intraperitoneally (ip) with herpes simplex virus type-2(HSV-2)strain 186 at 2.5×10^5 PFU/0.2 ml/mouse. OXTs were administered ip once a day with the indicated doses for 5 days, starting 6 hours after inoculation. The survival rates (%)of mice treated with OXTs were evaluated at least for 3 weeks after inoculation.

[4] = system: HIV (human immunodeficiency virus); assay: Anti-HIV activity (development of virus antigen in MT-4 cells); type: cell-based; settings: DMSO only 80 to 90%
Procedure: (b) Anti-HIV (human immunodeficiency virus) activity
MT-4 cell (about 100,000 cells/ml) was added into a 24 well tray, and then 100 microliters of a solution containing a predetermined quantity of a compound of this invention was added. After culturing it at 37° C. for 5 hours in 5% (v/v) carbon dioxide incubator, 10^3 to 10^4 infection units of HIV was added and cultured for 4 days. Then, a part of the culture fluid was coated onto a slide glass and immobilized with acetone, after which development of virus antigen was observed by indirect fluorescent antibody method.
As the primary antibody of the fluorescent antibody method, a serum of AIDS patient was used. As its secondary antibody, FITC-labelled […] was used.

[5] = system: cytomegalovirus (A01169 strain); assay: Anti-cytomegalovirus activity (plaque formation on human fetal fibroblasts); type: cell-based; settings: for IC50: Human betaherpesvirus 5, Fibroblast, 240 h, human fetal fibroblasts, 10 days
MT-4 cells = assay: Cell denaturation of MT-4 cells without virus; type: cell-based; settings: 100 μg/ml
[6] = system: T lymphocyte (spleen cells stimulated by Con A); assay: Inhibition of T lymphocyte blastgenesis caused by Con A; type: cell-based, BALB/C mouse; settings: for inhibition at 0.8 µg/mL / inhibition at 4 µg/mL / inhibition at 20 µg/mL: Mus musculus, T-lymphocyte, read-out: Inhibitory rate (%) on T lymphocyte blastgenesis caused by Con A; for inhibition at 0.8 µg/mL: 0.8 μg/ml; for inhibition at 4 µg/mL: 4.0 μg/ml; for inhibition at 20 µg/mL: 20.0 μg/ml
Procedure: as §1
Inhibition of T lymphocyte blastgenesis caused by Con A:
Spleen cells of BALB/C mouse were dividingly poured into microplate at a rate of 2×10^5 cells/0.2 ml/well. Test compounds of varied concentration were added to wells other than control group. Further, Con A was added to all the wells at a rate of 5 micrograms/ml. Then, the cell suspensions were cultured at 37° C. for 72 hours in a culture chamber having an atmosphere of 5% v/v carbon dioxide. The extent of lymphocyte blastgenesis was determined by adding 1 μci/well of ^3 [H]-thymidine 6 hours before completion of culture and measuring the intake into cultured cells by means of a liquid scintillation counter. Numerical value (1-B dpm/A dpm)×100 was taken as inhibitory rate of each sample compound on blastgenesis, wherein A dpm was intake count in the case of adding Con A only and B dpm was intake count in the case of adding Con A and the sample compound.

[7] = system: murine cytomegalovirus (MCMV) Smith strain; assay: Titers of MCMV in various tissues of mice; type: in vivo, ICR mice; settings: for Virus titer: 6 days after infection
[8] = system: murine cytomegalovirus (MCMV) Smith strain; assay: Efficacy against MCMV infection in mice, body weight; type: in vivo, ICR mice; settings: 10 mg/kg/day
Procedure: (b) Efficacy of treatment with OXT-G against MCMV infection in mice The 4-week old male ICR mice was inoculated intraperitoneally with Smith strain of murine cytomegalovirus (MCMV) at 1×10^5 PFU/0.2 ml and treated with 10 mg/kg/day of OXT-G once a day for 5 days, starting 6 hours after inoculation. The mortality and changes in body weight were monitored every day.

Compound: Nc1nc(N)c2ncn([C@@H]3O[C@H](CO)[C@H]3CO)c2n1 [2-Amino-OXT-A]
- Content (%) of DHBV in sera ([1]; 20 mg/kg/day ip): 28%
- Content (%) of DHBV in sera ([1]; 50 mg/kg/day ip): 18%
- Content (%) of DHBV in sera ([1]; 100 mg/kg/day ip): 8%
- effect on blastgenesis of B lymphocyte stimulated by LPS [2]: markedly suppressed
- inhibition at 4 µg/mL [2]: 23%
- inhibition at 20 µg/mL [2]: 93%
- Survivor/Total ([3]; 10 mg/kg/day ip): 7/10
- survival rate (%) ([3]; 10 mg/kg/day ip): 70%
- Development of virus antigen (%) ([4]; 1 μg/ml): 30%
- Development of virus antigen (%) ([4]; 10 μg/ml): 26%
- Development of virus antigen (%) ([4]; 100 μg/ml): 5%
- anti-cytomegalovirus inhibitory action [5]: particularly outstanding in the inhibitory action
- IC50 [5]: 2 µg/mL (≈ 7.51 µM)
- Cell denaturation (MT-4 cells): ±~+
- effect on blastgenesis of T lymphocyte stimulated by Con A [6]: markedly suppressed
- inhibition at 0.8 µg/mL [6]: 21%
- inhibition at 4 µg/mL [6]: 94%
- inhibition at 20 µg/mL [6]: 99%

Compound: Nc1ncnc2c1ncn2[C@@H]1O[C@H](CO)[C@H]1CO [OXT-A, reference compound]
- IC50 [5]: 13 µg/mL (≈ 51.7 µM)

Compound: Nc1nc2c(ncn2[C@@H]2O[C@H](CO)[C@H]2CO)c(=O)[nH]1 [OXT-G]
- Content (%) of DHBV in sera ([1]; 20 mg/kg/day ip): 9%
- Content (%) of DHBV in sera ([1]; 50 mg/kg/day ip): 25%
- Content (%) of DHBV in sera ([1]; 100 mg/kg/day ip): 3%
- effect on blastgenesis of B lymphocyte stimulated by LPS [2]: markedly suppressed
- inhibition at 4 µg/mL [2]: 64%
- inhibition at 20 µg/mL [2]: 93%
- Virus titer ([7]; Kidney): < 2 PFU/0.1 g tissue
- Virus titer ([7]; Liver): < 2 PFU/0.1 g tissue
- Virus titer ([7]; Lung): < 2 PFU/0.1 g tissue
- Virus titer ([7]; Spleen): < 2 PFU/0.1 g tissue
- quantity of MCMV recovered from the tissues ([7]; mouse, in vivo): significant reduction in the quantity of MCMV recovered from the tissues
- body weight of MCMV-infected mice [8]: maintained their body weight on the initial level for several days and gradually gained weight thereafter
- Average (5 mice) of body weight ([8]; day 0): 18.0 g
- Average (5 mice) of body weight ([8]; day 4): 20.0 g
- Average (5 mice) of body weight ([8]; day 8): 24.5 g
- Average (5 mice) of body weight ([8]; day 14): 31.0 g
- Survivor/Total ([3]; 5 mg/kg/day ip): 3/10
- survival rate (%) ([3]; 5 mg/kg/day ip): 30%
- Survivor/Total ([3]; 10 mg/kg/day ip): 8/10
- survival rate (%) ([3]; 10 mg/kg/day ip): 80%
- Survivor/Total ([3]; 20 mg/kg/day ip): 10/10
- survival rate (%) ([3]; 20 mg/kg/day ip): 100%
- Development of virus antigen (%) ([4]; 1 μg/ml): 42%
- Development of virus antigen (%) ([4]; 10 μg/ml): 17%
- anti-cytomegalovirus inhibitory action [5]: particularly outstanding in the inhibitory action
- IC50 [5]: 1 µg/mL (≈ 3.74 µM)
- effect on blastgenesis of T lymphocyte stimulated by Con A [6]: markedly suppressed
- inhibition at 0.8 µg/mL [6]: 85%
- inhibition at 4 µg/mL [6]: 96%
- inhibition at 20 µg/mL [6]: 100%

Compound: O=c1[nH]cnc2c1ncn2[C@@H]1O[C@H](CO)[C@H]1CO [OXT-H, reference compound]
- IC50 [5]: 18 µg/mL (≈ 71.4 µM)

Compound: O=c1[nH]c(=O)c2ncn([C@@H]3O[C@H](CO)[C@H]3CO)c2[nH]1 [OXT-X]
- effect on blastgenesis of B lymphocyte stimulated by LPS [2]: markedly suppressed
- inhibition at 4 µg/mL [2]: 8%
- inhibition at 20 µg/mL [2]: 27%
- Development of virus antigen (%) ([4]; 1 μg/ml): 66%
- Development of virus antigen (%) ([4]; 10 μg/ml): 52%
- Development of virus antigen (%) ([4]; 100 μg/ml): 5%
- Cell denaturation (MT-4 cells): ±~+
- effect on blastgenesis of T lymphocyte stimulated by Con A [6]: markedly suppressed
- inhibition at 0.8 µg/mL [6]: 11%
- inhibition at 4 µg/mL [6]: 36%
- inhibition at 20 µg/mL [6]: 71%
